≈ marks a conversion by molar mass, not a printed value.
Assays:
Assay type in all cases: functional
[1] = test system: Cryptococcus neoformans; assay: Antifungal activity against Cryptococcus neoformans after 72 hrs by broth microdilution method
[2] = test system: Cryptococcus neoformans; assay: Antifungal activity against Cryptococcus neoformans assessed as fungal growth at 0.125 ug/ml after 72 hrs by broth microdilution method
[3] = test system: Trichophyton mentagrophytes; assay: Antifungal activity against Trichophyton mentagrophytes after 7 days by broth microdilution method; conditions: 168 h
[4] = test system: Trichophyton rubrum; assay: Antifungal activity against Trichophyton rubrum after 7 days by broth microdilution method; conditions: 168 h
[5] = test system: Trichophyton rubrum; assay: Antifungal activity against Trichophyton rubrum assessed as fungal growth at 0.25 ug/ml after 7 days by broth microdilution method
[6] = test system: Trichophyton mentagrophytes; assay: Antifungal activity against Trichophyton mentagrophytes assessed as fungal growth at 0.25 ug/ml after 7 days by broth microdilution method

MIC80 [1] [µg/mL] | MIC50 [3] [µg/mL] | MIC80 [3] [µg/mL] | MIC50 [4] [µg/mL] | MIC80 [4] [µg/mL] | MIC50 [1] [µg/mL] | SMILES | Activity [2] [%] | Activity [5] [%] | Activity [6] [%]
0.25 (≈ 0.754 µM) | 0.06 (≈ 0.181 µM) | 0.125 (≈ 0.377 µM) | 0.06 (≈ 0.181 µM) | 0.125 (≈ 0.377 µM) | – | C[C@H](c1cccc2ccccc12)N(C)Cc1ccc(C(C)(C)C)cc1 | >50 | – | –
2 (≈ 6.03 µM) | – | – | – | – | 1 (≈ 3.02 µM) | C[C@@H](c1cccc2ccccc12)N(C)Cc1ccc(C(C)(C)C)cc1 | – | – | –
> 16 | – | – | – | – | 16 (≈ 58.1 µM) | C[C@H](c1cccc2ccccc12)N(C)Cc1ccccc1 | – | – | –
1 (≈ 3.46 µM) | 0.25 (≈ 0.864 µM) | 0.5 (≈ 1.73 µM) | 0.25 (≈ 0.864 µM) | 0.5 (≈ 1.73 µM) | 0.5 (≈ 1.73 µM) | Cc1ccc(CN(C)[C@H](C)c2cccc3ccccc23)cc1 | – | – | –
4 (≈ 13.1 µM) | 1 (≈ 3.27 µM) | 2 (≈ 6.55 µM) | 1 (≈ 3.27 µM) | 2 (≈ 6.55 µM) | 2 (≈ 6.55 µM) | COc1ccc(CN(C)[C@H](C)c2cccc3ccccc23)cc1 | – | – | –
1 (≈ 2.82 µM) | 0.25 (≈ 0.706 µM) | 0.5 (≈ 1.41 µM) | 0.125 (≈ 0.353 µM) | 0.25 (≈ 0.706 µM) | 0.5 (≈ 1.41 µM) | C[C@H](c1cccc2ccccc12)N(C)Cc1ccc(Br)cc1 | – | – | –
> 16 | 1 (≈ 3.12 µM) | 2 (≈ 6.24 µM) | 0.25 (≈ 0.78 µM) | 0.5 (≈ 1.56 µM) | 2 (≈ 6.24 µM) | C[C@H](c1cccc2ccccc12)N(C)Cc1ccc([N+](=O)[O-])cc1 | – | – | –
1 (≈ 2.91 µM) | 0.25 (≈ 0.728 µM) | 0.5 (≈ 1.46 µM) | 0.25 (≈ 0.728 µM) | 0.5 (≈ 1.46 µM) | 0.5 (≈ 1.46 µM) | C[C@H](c1cccc2ccccc12)N(C)Cc1ccc(C(F)(F)F)cc1 | – | – | –
1 (≈ 2.88 µM) | – | 0.5 (≈ 1.44 µM) | – | 0.5 (≈ 1.44 µM) | 0.5 (≈ 1.44 µM) | C[C@H](c1cccc2ccccc12)N(C)Cc1ccc([Si](C)(C)C)cc1 | – | >50 | >50
4 (≈ 11.1 µM) | – | 0.5 (≈ 1.39 µM) | 0.5 (≈ 1.39 µM) | 1 (≈ 2.78 µM) | 2 (≈ 5.56 µM) | C[C@H](c1cccc2ccccc12)N(C)Cc1ccc(OC(F)(F)F)cc1 | – | – | >50
1 (≈ 2.62 µM) | 0.125 (≈ 0.328 µM) | 0.25 (≈ 0.655 µM) | 0.125 (≈ 0.328 µM) | 0.25 (≈ 0.655 µM) | 0.5 (≈ 1.31 µM) | C[C@H](c1cccc2ccccc12)N(C)Cc1ccc(OCc2ccccc2)cc1 | – | – | –
> 32 | – | – | – | – | > 16 | C[C@H](c1cccc2ccccc12)N(C)Cc1ccc(-c2ccccc2)cc1 | – | – | –
> 32 | – | – | – | – | > 32 | C[C@H](c1cccc2ccccc12)N(C)Cc1ccccc1F | – | – | –
> 32 | – | – | – | – | > 32 | C[C@H](c1cccc2ccccc12)N(C)Cc1ccccc1Br | – | – | –
> 32 | – | – | – | – | > 32 | C[C@H](c1cccc2ccccc12)N(C)Cc1ccccc1C(F)(F)F | – | – | –
> 32 | – | – | – | – | > 32 | C[C@H](c1cccc2ccccc12)N(C)Cc1ccccc1-c1ccccc1 | – | – | –
8 (≈ 22.6 µM) | 2 (≈ 5.65 µM) | 4 (≈ 11.3 µM) | 1 (≈ 2.82 µM) | 2 (≈ 5.65 µM) | 4 (≈ 11.3 µM) | C[C@H](c1cccc2ccccc12)N(C)Cc1cccc(Br)c1 | – | – | –

MIC80 [1] [µg/mL] | MIC50 [3] [µg/mL] | MIC80 [3] [µg/mL] | MIC50 [4] [µg/mL] | MIC80 [4] [µg/mL] | MIC50 [1] [µg/mL] | SMILES | Activity [2] [%] | Activity [5] [%] | Activity [6] [%]
8 (≈ 23.3 µM) | 4 (≈ 11.6 µM) | > 32 | 2 (≈ 5.82 µM) | 4 (≈ 11.6 µM) | 4 (≈ 11.6 µM) | C[C@H](c1cccc2ccccc12)N(C)Cc1cccc(C(F)(F)F)c1 | – | – | –
> 32 | – | – | – | – | > 32 | C[C@H](c1cccc2ccccc12)N(C)Cc1cc(C(F)(F)F)cc(C(F)(F)F)c1 | – | – | –
> 32 | – | – | – | – | 32 (≈ 82.6 µM) | C[C@H](c1cccc2ccccc12)N(C)Cc1cc(C(C)(C)C)cc(C(C)(C)C)c1 | – | – | –
32 (≈ 89 µM) | > 32 | > 32 | > 32 | > 32 | 1 (≈ 2.78 µM) | Cc1cc(C(C)(C)C)cc(C)c1CN(C)[C@H](C)c1cccc2ccccc12 | – | – | –
> 32 | – | – | – | – | 16 (≈ 57.9 µM) | C[C@H](c1cccc2ccccc12)N(C)Cc1ccncc1 | – | – | –
> 32 | – | – | – | – | > 32 | C[C@H](c1cccc2ccccc12)N(C)Cc1cccnc1 | – | – | –
> 32 | – | – | – | – | > 32 | C[C@H](c1cccc2ccccc12)N(C)Cc1ccccn1 | – | – | –
4 (≈ 12.1 µM) | 0.5 (≈ 1.51 µM) | 1 (≈ 3.02 µM) | 0.5 (≈ 1.51 µM) | 1 (≈ 3.02 µM) | 2 (≈ 6.03 µM) | C[C@@H](c1ccc(C(C)(C)C)cc1)N(C)Cc1cccc2ccccc12 | – | – | –
> 32 | > 32 | > 32 | > 32 | > 32 | > 32 | C[C@H](c1ccc(C(C)(C)C)cc1)N(C)Cc1cccc2ccccc12 | – | – | –
> 32 | 2 (≈ 5.96 µM) | 4 (≈ 11.9 µM) | 2 (≈ 5.96 µM) | 4 (≈ 11.9 µM) | > 32 | CC(C)(C)c1ccc([C@H](CF)NCc2cccc3ccccc23)cc1 | – | – | –
> 32 | > 32 | > 32 | > 32 | > 32 | > 32 | CC(C)(C)c1ccc([C@@H](CF)NCc2cccc3ccccc23)cc1 | – | – | –
> 32 | > 32 | > 32 | > 32 | > 32 | > 32 | CN(Cc1cccc2ccccc12)[C@@H](CF)c1ccc(C(C)(C)C)cc1 | – | – | –
> 32 | > 32 | > 32 | > 32 | > 32 | > 32 | CN(Cc1cccc2ccccc12)[C@H](CF)c1ccc(C(C)(C)C)cc1 | – | – | –
8 (≈ 27.3 µM) | – | – | – | – | 4 (≈ 13.6 µM) | C[C@H](c1cccc2ccccc12)N(C)Cc1ccc(F)cc1 | – | – | –
< 0.5 | 0.5 (≈ 0.541 µM) | < 1 | > 0.25 | < 0.5 | 0.25 (≈ 0.271 µM) | C[C@@H]1[C@H](O)[C@@H](C)/C=C/C=C/C=C/C=C/C=C/C=C/C=C/[C@H](O[C@@H]2O[C@H](C)[C@@H](O)[C@H](N)[C@@H]2O)C[C@@H]2O[C@](O)(C[C@@H](O)C[C@@H](O)[C@H](O)CC[C@@H](O)C[C@@H](O)CC(=O)O[C@H]1C)C[C@H](O)[C@H]2C(=O)O [AMPHOTERICIN B] | – | – | –
1 (≈ 3.15 µM) | 0.06 (≈ 0.189 µM) | 0.125 (≈ 0.394 µM) | 0.03 (≈ 0.0945 µM) | 0.06 (≈ 0.189 µM) | 0.5 (≈ 1.57 µM) | CN(Cc1ccc(C(C)(C)C)cc1)Cc1cccc2ccccc12 [BUTENAFINE] | – | – | –
